The values that follow come from patent US6043248A, “Alpha-substituted pyrimidine-thioalkyl and alkylether compounds as inhibitors of viral reverse transcriptase” (priority 1997, dated 2000).

Experiment [1] addresses T1, viral reverse transcriptase (Wild Type) (Human immunodeficiency virus type 1 group M subtype B, UniProt P04585).
T1 construct: Viral reverse transcriptase (Wild Type) is found in extracts from bacterial clones; made in house; host or cells: Escherichia coli
Put plainly: inhibition of viral reverse transcriptase (Wild Type), cell free assay. The experiment is classed as biochemical. The note with it: 30 minutes at 37° C., read-out: IC50 (Table II, Wild Type). A digest of the protocol: (§1)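 E. coli-expressed wild-type or P236L RT extracts incubated with inhibitor 30 min at 37 °C in Tris pH 8.3 with MgCl₂, NaCl, DTT, NP-40, 10 μM [35S]-dNTP, poly rC/rG template and oligo dG/dT primer. Incorporated label counted on DE81 paper; reported as % inhibition and/or IC50.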

The target of experiment [2] is T2, P236L viral reverse transcriptase (Human immunodeficiency virus type 1 group M subtype B, UniProt P04585, P823L).
T2 construct: P236L viral reverse transcriptase is obtained by PNAS 90: 4713-4717 (1993); made in house
The experiment in a line: inhibition of viral reverse transcriptase (P236L), cell free assay. It is filed as biochemical. The note with it: IC50 (Table I, P236L), 30 minutes at 37° C. The method in brief: as §1

Broadly, the IC50 is the concentration at which inhibition is half-maximal. With `CC(Sc1nc(N)cc(Cl)n1)c1cc2c(C(F)(F)F)coc2cn1` (stereo not shown) [Example 294], the concentration for half-maximal inhibition (IC50) is 233 nM in experiment [1] and 104 nM in experiment [2].
As for `CC(C)COc1ccc(C(C)Sc2nc(N)cc(Cl)n2)nc1Cl` (stereo not shown) [Example 307, 4-amino-6-chloro-2-(((5-isobutoxy-6-chloro)-2-pyridyl)-ethyl)thio-pyrimidine], the values for the 50% inhibitory concentration (IC50) in experiment [1] and in experiment [2] were 5000 nM and 1000 nM, respectively.
As for `CC(Sc1nc(N)cc(Cl)n1)c1cc(C2CCCC2)ccn1` (stereo not shown) [Example 253], the 50% inhibitory concentration (IC50) in experiment [1] was determined as 203 nM; in experiment [2], 200 nM.
For `CC(C)c1ccnc(C(C)Sc2nc(N)c(Br)c(Cl)n2)c1` (stereo not shown) [Example 225], the 50% inhibitory concentration (IC50) in experiment [1] was found to be 101 nM; in experiment [2] it was 67 nM.
The matching figures for `CC(Sc1nc(N)cc(C(F)(F)F)n1)c1cc2c(cn1)CCCC2` (stereo not shown) [Example 234, 4-Amino-6-trifluoromethyl-2-(1-(3-(5,6,7,8-tetrahydro-isoquinolyl))ethyl)thio-pyrimidine]: 131 nM and 170 nM.
